Test results from EPA's ToxRefDB 2.

How the values were obtained:
dog [1] = details: Subchronic oral toxicity in nonrodent, beagle, Gavage/Intubation, dose end: 92 day, group: systemic
dog [2] = details: Sub-acute repeat dose toxicity, beagle, Oral, Gavage/Intubation, dose end: 14 day, group: systemic
rat [3] = details: Fertility (Segment I), sprague dawley, Oral, Gavage/Intubation, dose end: 1 generation, group: parental
rabbit = details: Sub-acute repeat dose toxicity, new zealand white, Oral, Gavage/Intubation, dose end: 5 day, group: systemic
rat [4] = details: Fertility (Segment I); sprague dawley; Oral; Gavage/Intubation; dose end: 1 generation; group: parental; systemic / in life observation / body weight / body weight gain + systemic / in life observation / clinical signs / anogenital staining
rat [5] = details: Subchronic oral toxicity in rodents, sprague dawley, Gavage/Intubation, dose end: 90 day, group: systemic
rat [6] = details: Sub-acute repeat dose toxicity, sprague dawley, Oral, Gavage/Intubation, dose end: 14 day, group: systemic
rat [7] = details: Subchronic oral toxicity in rodents, fischer, Gavage/Intubation, dose end: 13 week, group: systemic
mouse [8] = details: Carcinogenicity, b6c3f1, Oral, Gavage/Intubation, dose end: 2 year, group: systemic
rat [9] = details: Carcinogenicity, fischer, Oral, Gavage/Intubation, dose end: 2 year, group: systemic
mouse [10] = details: Subchronic oral toxicity in rodents, b6c3f1, Gavage/Intubation, dose end: 13 week, group: systemic
mouse [11] = details: Subchronic oral toxicity in rodents, b6c3f1, Gavage/Intubation, dose end: 13 week, group: systemic; remark: listed apart in the source
mouse [12] = details: Carcinogenicity; cd1; Oral; Gavage/Intubation; dose end: 78 week; group: systemic; systemic / in life observation / body weight / body weight + systemic / in life observation / body weight / body weight gain
rat [13] = details: Subchronic oral toxicity in rodents, fischer, Gavage/Intubation, dose end: 13 week, group: systemic; remark: listed apart in the source
rat [14] = details: Chronic toxicity, sprague dawley, Oral, Gavage/Intubation, dose end: 24 month, group: systemic
dog [15] = details: Chronic toxicity, beagle, Oral, Capsule, dose end: 52 week, group: systemic
[16] = systemic / clinical chemistry / albumin / albumin + systemic / in life observation / clinical signs / erythema + systemic / clinical …
[17] = systemic / clinical chemistry / [other] / [other] + systemic / clinical chemistry / hepatic mixed function oxidase (mfo) assay / hepatic …
[18] = systemic / in life observation / clinical signs / abnormal feces
[19] = systemic / in life observation / clinical signs / anogenital staining + systemic / in life observation / clinical signs / salivation
[20] = systemic / in life observation / body weight / body weight + systemic / in life observation / clinical signs / abnormal feces + systemic / …
[21] = systemic / in life observation / mortality / mortality + systemic / in life observation / body weight / body weight + systemic / in life …
[22] = systemic / in life observation / clinical signs / salivation + systemic / pathology microscopic / bone / proliferation
[23] = systemic / in life observation / clinical signs / salivation + systemic / pathology microscopic / bone / proliferation + systemic / …
[24] = systemic / clinical chemistry / [other] / [other] + systemic / clinical chemistry / cytochrome p450, nos / cytochrome p450, nos + systemic…
[25] = systemic / in life observation / mortality / mortality
[26] = systemic / in life observation / mortality / mortality + systemic / pathology microscopic / brain / degeneration + systemic / pathology …
[27] = systemic / pathology microscopic / stomach / hyperplasia
[28] = systemic / pathology microscopic / stomach / papilloma + systemic / pathology microscopic / stomach / hyperplasia
[29] = systemic / pathology microscopic / spleen / leukemia mononuclear
[30] = systemic / pathology microscopic / spleen / leukemia mononuclear + systemic / pathology microscopic / stomach / papilloma + systemic / …
[31] = systemic / in life observation / mortality / mortality + systemic / in life observation / body weight / body weight + systemic / pathology …
[32] = systemic / in life observation / body weight / body weight + systemic / in life observation / body weight / body weight gain + systemic / in…
[33] = systemic / organ weight / liver / absolute + systemic / organ weight / liver / relative to body weight
[34] = systemic / clinical chemistry / alkaline phosphatase (alp/alk) / alkaline phosphatase (alp/alk) + systemic / clinical chemistry / urea …
[35] = systemic / pathology microscopic / liver / hyperplasia
[36] = systemic / pathology microscopic / liver / hyperplasia + systemic / pathology microscopic / bone marrow / [other]
[37] = systemic / clinical chemistry / albumin / albumin + systemic / clinical chemistry / albumin-globulin ratio / albumin-globulin ratio + …
[38] = systemic / hematology / leukocyte (wbc) count differential / leukocyte (wbc) + systemic / pathology microscopic / bone marrow / …

O=C(NO)C1(NS(=O)(=O)c2ccc(Oc3ccc(F)cc3)cc2)CCOCC1 gave an NEL (dog [1]; systemic / clinical chemistry / albumin / albumin + systemic / in life observation / clinical signs / erythema) of 10 mg/kg/day, an LOAEL (dog [1]; [16]) of over 400 mg/kg/day and an NOAEL (dog [1]; [16]) of at least 400 mg/kg/day. For the same molecule, the LEL (dog [1]; systemic / in life observation / clinical signs / erythema + systemic / clinical chemistry / albumin / albumin + systemic / clinical …) was 100 mg/kg/day, the LOAEL (dog [2]; [17]) was over 400 mg/kg/day and the NOAEL (dog [2]; [17]) was at least 400 mg/kg/day. For the same molecule, the LEL (dog [2]; [18]) was 10 mg/kg/day, the NEL (dog [2]; [18]) was under 10 mg/kg/day and the LEL (rat [3]; systemic / in life observation / clinical signs / anogenital staining) was 50 mg/kg/day. For the same molecule, the LOAEL (rat [3]; [19]) was over 1000 mg/kg/day, the NEL (rat [3]; [19]) was 10 mg/kg/day and the NOAEL (rat [3]; [19]) was at least 1000 mg/kg/day. The LEL (rabbit; [20]) was 60 mg/kg/day, the NEL (rabbit; [20]) was under 60 mg/kg/day and the LOAEL (rabbit; [21]) was over 600 mg/kg/day. It also gave an NOAEL (rabbit; [21]) of at least 600 mg/kg/day, an LEL (rat [4]) of 1000 mg/kg/day and an LOAEL (rat [4]) of over 1000 mg/kg/day. It also gave an NEL (rat [4]) of 50 mg/kg/day, an NOAEL (rat [4]) of at least 1000 mg/kg/day and an LEL (rat [5]; [22]) of 10 mg/kg/day. For the same molecule, the NEL (rat [5]; [22]) was under 10 mg/kg/day, the LOAEL (rat [5]; [23]) was over 1000 mg/kg/day and the NOAEL (rat [5]; [23]) was at least 1000 mg/kg/day. The LOAEL (rat [6]; [24]) was over 1000 mg/kg/day, the NOAEL (rat [6]; [24]) was at least 1000 mg/kg/day and the LEL (rat [6]; systemic / in life observation / clinical signs / salivation) was 50 mg/kg/day. It also gave an NEL (rat [6]; systemic / in life observation / clinical signs / salivation + systemic / in life observation / clinical signs / urine staining - perineum…) of 10 mg/kg/day.
For O=Cc1ccccc1 [Benzaldehyde], the LEL (rat [7]; [25]) was 400 mg/kg/day, the LOAEL (rat [7]; [26]) was over 800 mg/kg/day and the NEL (rat [7]; [26]) was 200 mg/kg/day. For the same molecule, the NOAEL (rat [7]; [26]) was at least 800 mg/kg/day, the LOAEL (mouse [8]; [27]) was over 400 mg/kg/day and the NOAEL (mouse [8]; [27]) was at least 400 mg/kg/day. For the same molecule, the LEL (mouse [8]; [28]) was 300 mg/kg/day, the NEL (mouse [8]; [28]) was under 300 mg/kg/day and the LEL (rat [9]; [29]) was 200 mg/kg/day. The NEL (rat [9]; [29]) was under 200 mg/kg/day, the LOAEL (rat [9]; [30]) was over 400 mg/kg/day and the NOAEL (rat [9]; [30]) was at least 400 mg/kg/day. For the same molecule, the NEL (mouse [10]; systemic / in life observation / body weight / body weight + systemic / in life observation / mortality / mortality + systemic / pathology …) was 300 mg/kg/day, the LEL (mouse [10]; systemic / in life observation / body weight / body weight + systemic / pathology microscopic / kidney / degeneration) was 600 mg/kg/day and the LOAEL (mouse [10]; [31]) was over 1200 mg/kg/day. For the same molecule, the NOAEL (mouse [10]; [31]) was at least 1200 mg/kg/day.
Work on N#CSCSC#N [Methylene bis(thiocyanate)] yielded an LOAEL (mouse [11]; [32]) of over 16 mg/kg/day, an NOAEL (mouse [11]; [32]) of at least 16 mg/kg/day and an LEL (mouse [11]; [33]) of 1 mg/kg/day. It also gave an NEL (mouse [11]; [33]) of under 1 mg/kg/day, an LEL (mouse [12]) of 3 mg/kg/day and an LOAEL (mouse [12]) of 3 mg/kg/day. It also gave an NEL (mouse [12]) of 1.2 mg/kg/day, an NOAEL (mouse [12]) of 1.2 mg/kg/day and an LEL (rat [13]; [34]) of 1 mg/kg/day. For the same molecule, the NEL (rat [13]; [34]) was under 1 mg/kg/day, the LOAEL (rat [13]; [25]) was 2 mg/kg/day and the NOAEL (rat [13]; systemic / in life observation / mortality / mortality + systemic / clinical chemistry / alanine aminotransferase (alt/sgpt) / alanine …) was 1 mg/kg/day. It also gave an LOAEL (rat [14]; [35]) of 0.4 mg/kg/day, an NOAEL (rat [14]; [35]) of under 0.4 mg/kg/day and an LEL (rat [14]; [36]) of 0.4 mg/kg/day. It also gave an NEL (rat [14]; [36]) of under 0.4 mg/kg/day, an LOAEL (dog [15]; [37]) of 2 mg/kg/day and an NOAEL (dog [15]; [37]) of 0.5 mg/kg/day. The LEL (dog [15]; [38]) was 0.5 mg/kg/day and the NEL (dog [15]; [38]) was under 0.5 mg/kg/day.
